Experimental data: the supplement of paper PMC4977894
± gives the standard deviation of the averaged measurements.

Experiments:
[1] = system: Homo sapiens (human subject panel, olfactory perception); assay: perceived odor pleasantness rating (rating 0-100); higher = more pleasant
Method: (§1)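 Human olfactory psychophysics. 55 healthy subjects (after excluding 6 low performers) sniffed 1 mL of each odorant diluted in paraffin oil (vials, two dilutions per molecule, 20 molecules presented twice). Each subject rated intensity, pleasantness and familiarity on a 0-100 slider, starting at 50 and required to move. Ratings were given only when the subject reported detecting a smell; per-subject ratings are averaged over subjects.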

[2] = system: Homo sapiens (human subject panel, olfactory perception); assay: perceived odor familiarity rating (rating 0-100); higher = more familiar
Method: as §1

[3] = system: Homo sapiens (human subject panel, olfactory perception); assay: perceived odor intensity rating (rating 0-100); higher = stronger perceived smell
Method: as §1

[4] = odor dilution in paraffin oil: 1/1,000
[5] = odor dilution in paraffin oil: 1/100,000
[6] = odor dilution in paraffin oil: 1/10,000,000
[7] = odor dilution in paraffin oil: 1/10

| SMILES | perceived odor pleasantness rating [1, 4] | perceived odor pleasantness rating [1, 5] | perceived odor familiarity rating [2, 4] | perceived odor familiarity rating [2, 5] | perceived odor intensity rating [3, 4] | perceived odor intensity rating [3, 5] | perceived odor pleasantness rating [1, 6] | perceived odor familiarity rating [2, 6] | perceived odor intensity rating [3, 6] | perceived odor pleasantness rating [1, 7] | perceived odor familiarity rating [2, 7] | perceived odor intensity rating [3, 7] |
| --- | --- | --- | --- | --- | --- | --- | --- | --- | --- | --- | --- | --- |
| CCC(=O)OCCCc1ccccc1 [3-Phenylpropyl propionate] | 36.4 ± 28 | 49.8 ± 27 | 49.1 ± 28 | 38.6 ± 32 | 62.9 ± 26 | 28.4 ± 34 | – | – | – | – | – | – |
| CCCC(O)CC (stereo not given) [3-hexanol (replicate)] | 32.3 ± 22 | 46.6 ± 22 | 50.5 ± 34 | 34.2 ± 26 | 68.9 ± 28 | 30.2 ± 30 | – | – | – | – | – | – |
| CCCC(O)CC (stereo not given) [3-hexanol] | 35.1 ± 26 | 49.1 ± 24 | 43.1 ± 31 | 28.1 ± 23 | 71.3 ± 28 | 29.7 ± 30 | – | – | – | – | – | – |
| CCCCCC(=O)CC [3-octanone] | 50.9 ± 31 | 53.3 ± 23 | 56.4 ± 28 | 35.9 ± 30 | 69.7 ± 25 | 26 ± 27 | – | – | – | – | – | – |
| CCC(O)CC [3-pentanol] | 34 ± 26 | 33.4 ± 25 | 58.3 ± 32 | 44 ± 33 | 76.4 ± 18 | 39.4 ± 35 | – | – | – | – | – | – |
| O=C1CCSC1 [4,5-Dihydro-3(2H)-thiophenone] | 21.4 ± 26 | 33.2 ± 22 | 52.9 ± 34 | 30.8 ± 34 | 85.8 ± 20 | 37 ± 34 | – | – | – | – | – | – |
| CC1=C(O)C(=O)OC1C (stereo not given) [4,5-Dimethyl-3-hydroxy-2,5-dihydrofuran-2-one] | – | 59.5 ± 29 | – | 64.4 ± 25 | – | 72.6 ± 21 | 46.1 ± 26 | 42.7 ± 32 | 41.8 ± 30 | – | – | – |
| CC(=O)CCc1ccc(O)cc1 [4-(4-Hydroxyphenyl)-2-butanone] | 50.6 ± 24 | – | 46.1 ± 28 | – | 46.3 ± 30 | – | – | – | – | 49.6 ± 27 | 40.1 ± 29 | 50.2 ± 29 |
| C=CCc1ccc(OC)cc1 [4-Allylanisole] | 60.8 ± 24 | 54.5 ± 24 | 64.2 ± 28 | 28.7 ± 27 | 60.8 ± 26 | 22.3 ± 29 | – | – | – | – | – | – |
| CCOc1ccc(C=O)cc1 [4-Ethoxybenzaldehyde] | 67.4 ± 26 | 66.4 ± 24 | 58.5 ± 30 | 47.2 ± 31 | 65.2 ± 25 | 34.2 ± 28 | – | – | – | – | – | – |
| CCc1ccc(O)c(OC)c1 [4-Ethylguaiacol] | 41.7 ± 27 | 43.8 ± 24 | 57.6 ± 32 | 52.1 ± 32 | 78 ± 17 | 69.4 ± 23 | – | – | – | – | – | – |
| CCCC(=O)CCC [4-Heptanone] | 49.3 ± 23 | 51.6 ± 24 | 55.4 ± 27 | 41.1 ± 29 | 69.3 ± 24 | 34.7 ± 31 | – | – | – | – | – | – |
| O=Cc1ccc(O)cc1 [4-Hydroxybenzaldehyde] | 51.8 ± 23 | – | 39.1 ± 31 | – | 37.6 ± 27 | – | – | – | – | 49.2 ± 24 | 39.5 ± 25 | 51.6 ± 29 |
| O=C1CCCO1 [4-Hydroxybutanoic acid lactone] | 28.9 ± 19 | 46.1 ± 25 | 44.6 ± 31 | 28.2 ± 30 | 47 ± 34 | 19.9 ± 24 | – | – | – | – | – | – |
| CC(C)c1ccc(CO)cc1 [4-Isopropylbenzyl alcohol] | 40.4 ± 25 | – | 33.1 ± 29 | – | 31.9 ± 32 | – | – | – | – | 31.8 ± 23 | 46.4 ± 31 | 71.6 ± 22 |
| CC(=O)OCCc1scnc1C [4-Methyl-5-thiazoleethanol acetate] | 34.4 ± 25 | 41.9 ± 24 | 53.8 ± 31 | 45.9 ± 32 | 66.3 ± 26 | 38 ± 30 | – | – | – | – | – | – |
| Cc1ncsc1CCO [4-Methyl-5-thiazoleethanol] | 29.6 ± 25 | 37.8 ± 24 | 56.7 ± 32 | 39.9 ± 28 | 73.1 ± 20 | 48.6 ± 29 | – | – | – | – | – | – |
| C=Cc1scnc1C [4-Methyl-5-vinylthiazole] | 21.3 ± 22 | 38.6 ± 27 | 41.4 ± 34 | 40.3 ± 33 | 80.5 ± 21 | 43.5 ± 32 | – | – | – | – | – | – |

| SMILES | perceived odor pleasantness rating [1, 4] | perceived odor pleasantness rating [1, 5] | perceived odor familiarity rating [2, 4] | perceived odor familiarity rating [2, 5] | perceived odor intensity rating [3, 4] | perceived odor intensity rating [3, 5] | perceived odor pleasantness rating [1, 6] | perceived odor familiarity rating [2, 6] | perceived odor intensity rating [3, 6] | perceived odor pleasantness rating [1, 7] | perceived odor familiarity rating [2, 7] | perceived odor intensity rating [3, 7] |
| --- | --- | --- | --- | --- | --- | --- | --- | --- | --- | --- | --- | --- |
| COc1ccc(C)cc1 [4-Methylanisole] | 47.7 ± 28 | 56.3 ± 28 | 48.2 ± 31 | 50.2 ± 28 | 70.5 ± 21 | 44.8 ± 31 | – | – | – | – | – | – |
| CC1CCC(=O)CC1 [4-Methylcyclohexanone] | 36.9 ± 25 | 64.6 ± 20 | 46 ± 32 | 49.2 ± 28 | 60.9 ± 31 | 32.5 ± 28 | – | – | – | – | – | – |
| Cc1ccnc2ccccc12 [4-Methylquinoline] | – | 40.5 ± 21 | – | 33.1 ± 30 | – | 38.7 ± 30 | 49.5 ± 24 | 34.8 ± 28 | 20.8 ± 22 | – | – | – |
| Cc1cscn1 [4-Methylthiazole] | 29.4 ± 27 | 32.7 ± 20 | 46.8 ± 31 | 44.4 ± 29 | 60.7 ± 30 | 57.3 ± 28 | – | – | – | – | – | – |
| CC(C)CCC(=O)O [4-Methylvaleric acid] | – | 20.8 ± 22 | – | 41.8 ± 30 | – | 58.6 ± 30 | 43.3 ± 20 | 32.5 ± 25 | 30.9 ± 30 | – | – | – |
| CC1=CC(=O)CC(C)(C)C1=O [4-Oxoisophorone] | 47.7 ± 25 | 55 ± 21 | 49.7 ± 28 | 44.2 ± 28 | 49.2 ± 26 | 34 ± 28 | – | – | – | – | – | – |
| C=CCCC(=O)O [4-Pentenoic acid] | 14.1 ± 18 | 15.7 ± 18 | 48.1 ± 34 | 44.9 ± 32 | 80.5 ± 22 | 65 ± 29 | – | – | – | – | – | – |
| C=CCc1ccc(OC)c(OC)c1 [4-allyl-1,2-dimethoxy benzene] | 54.4 ± 25 | 55.3 ± 24 | 45.6 ± 30 | 39.8 ± 29 | 37.5 ± 29 | 17.2 ± 21 | – | – | – | – | – | – |
| COc1cc(C(=O)O)ccc1O [4-hydroxy-3-methoxybenzoic acid] | 44.1 ± 23 | – | 45.4 ± 24 | – | 28.8 ± 29 | – | – | – | – | 54.7 ± 28 | 51.9 ± 29 | 65.3 ± 26 |
| CCCc1ccc(O)cc1 [4-propylphenol] | 36.7 ± 24 | 47.7 ± 21 | 39 ± 33 | 43.6 ± 27 | 67.3 ± 24 | 38.2 ± 30 | – | – | – | – | – | – |
| c1cnc2c(n1)CCCC2 [5,6,7,8-Tetrahydroquinoxaline] | – | 55.6 ± 25 | – | 65.5 ± 28 | – | 68.2 ± 24 | 42.9 ± 27 | 44.4 ± 26 | 40.3 ± 31 | – | – | – |
| CCC1OC(=O)C(O)=C1C (stereo not given) [5-Ethyl-3-hydroxy-4-methyl-2(5H)-furanone (replicate)] | – | 65.2 ± 22 | – | 54.2 ± 32 | – | 44.9 ± 30 | 67.5 ± 26 | 64.6 ± 32 | 58.9 ± 32 | – | – | – |
| CCC1OC(=O)C(O)=C1C (stereo not given) [5-Ethyl-3-hydroxy-4-methyl-2(5H)-furanone] | – | 54.4 ± 22 | – | 44.9 ± 29 | – | 36.6 ± 31 | 64 ± 22 | 59.7 ± 34 | 48.1 ± 32 | – | – | – |
| C=CCCCCO [5-Hexen-1-ol] | 48 ± 28 | 49.2 ± 23 | 43.7 ± 33 | 42.6 ± 30 | 62.2 ± 32 | 26 ± 25 | – | – | – | – | – | – |
| C/C=C/C(=O)[C@H](C)CC [5-Methyl-2-hepten-4-one] | – | 45.3 ± 28 | – | 45.1 ± 31 | – | 69.2 ± 27 | 64.7 ± 25 | 40.8 ± 31 | 26 ± 28 | – | – | – |
| Cc1ccc(C=O)o1 [5-Methylfurfural] | 59.3 ± 24 | 45.8 ± 23 | 52.6 ± 31 | 36 ± 29 | 59 ± 31 | 17.9 ± 24 | – | – | – | – | – | – |
| Cc1cccc2nccnc12 [5-Methylquinoxaline] | – | 45.7 ± 27 | – | 51.8 ± 31 | – | 49 ± 31 | 48.6 ± 30 | 23.7 ± 32 | 19.4 ± 29 | – | – | – |
